Patent US7501431B2, “Physiologically active substances PF1270A, B and C substances” (Meui Seika Kaisha, Ltd., priority 2003, dated 2009)
pIC50: −log10 of the molar value. Like-named read-outs stand apart in the source and are kept apart here.

Legend:
histamine H3 receptor = biological target: T1, histamine H3 receptor (Rattus norvegicus, UniProt Q9QYN8); test: N^α-methylhistamine binding inhibition test ([3H]N^α-methylhistamine, rat fore-brain membrane fraction); conditions: for IC50: rat fore-brain histamine H3 receptor membrane fraction, 1 nM [3H]N^α-methylhistamine, room temperature 60 minutes, read-out: N^α-methylhistamine binding inhibition activity, IC50 (converted)
T1 construct: Rat fore-brain was homogenized in 10 volumes of 0.32 M sucrose solution; from tissue; host or cells: rat fore-brain membrane fraction
Description: The PF1270A, B and C substances obtained by the invention have affinity for histamine H3 receptor. Affinity of the PF1270A, B and C substances for histamine H3 receptor was examined by a binding inhibition test of a histamine H3 receptor ligand, N^α-methylhistamine.
Test Example N^α-methylhistamine Binding Inhibition Activity
Rat fore-brain was homogenized in 10 volumes of 0.32 M sucrose solution using a Teflon-glass homogenizer, and the thus obtained homogenate was centrifuged at 1000×g for 10 minutes. The supernatant was centrifuged at 39000×g for 20 minutes to obtain the precipitate. This precipitate was washed with an assay buffer (50 mM Tris (pH 7.4), 5 mM EDTA) by centrifugation. This operation was further carried out twice, and the finally obtained membrane fraction was used as the histamine H3 receptor membrane fraction.
The binding inhibition test was carried out using the thus obtained membrane fraction and a radioactive ligand [^3H]N^α-methylhistamine (manufactured by Perkin-Elmer Life Science). In the presence of PF1270A, B or C substance, the membrane fraction (55 μg as protein) and 1 nM in final concentration of [^3H]N^α-methylhistamine were added to 150 μl of the assay buffer and incubated at room temperature for 60 minutes. This was filtered using a unifilter GF/B filter (manufactured by Perkin-Elmer) coated with 0.3% polyethyleneimine and washed three times with 200 μl of the assay buffer. After drying at 50° C. for 1 hour, 30 μl of Microscinti-20 (manufactured by Perkin-Elmer) was added thereto as the scintillator, and the radioactivity was counted using Top Count (manufactured by Perkin-Elmer). The nonspecific binding was determined by adding a large excess of thioperamide (10 μM in final concentration). The binding inhibition ratio of N^α-methylhistamine in the presence of PF1270A, B or C substance was calculated based on the following formula. […]

[1] = Solubility (physicochemical properties)

T1 sequence (Q9QYN8 whole entry): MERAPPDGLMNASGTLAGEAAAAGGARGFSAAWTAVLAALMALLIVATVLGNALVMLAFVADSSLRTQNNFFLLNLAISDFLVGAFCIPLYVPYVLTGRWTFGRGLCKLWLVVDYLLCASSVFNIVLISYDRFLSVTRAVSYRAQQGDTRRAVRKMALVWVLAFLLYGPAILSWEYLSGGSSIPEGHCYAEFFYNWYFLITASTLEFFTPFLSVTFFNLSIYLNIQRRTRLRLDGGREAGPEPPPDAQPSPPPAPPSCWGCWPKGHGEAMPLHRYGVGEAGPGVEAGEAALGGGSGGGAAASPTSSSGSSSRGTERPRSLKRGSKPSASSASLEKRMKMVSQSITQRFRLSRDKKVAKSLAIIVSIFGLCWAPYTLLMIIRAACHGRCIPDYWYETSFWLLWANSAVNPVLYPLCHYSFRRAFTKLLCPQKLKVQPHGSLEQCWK

## CCCC(=O)OC1CC(C)N2CC3(NC)CC4(C(=O)Nc5c(C(=O)C6OC6(C)C)cccc54)C(C)(C=O)C3CC2C1 (stereo not drawn) [PF1270A]
Histamine H3 receptor
  pIC50: 7.08
[1]
  Solubility in chloroform and methanol: soluble
  Solubility in water: hardly soluble

## CCC(=O)OC1CC(C)N2CC3(NC)CC4(C(=O)Nc5c(C(=O)C6OC6(C)C)cccc54)C(C)(C=O)C3CC2C1 (stereo not drawn) [PF1270B]
Histamine H3 receptor
  IC50: 399 nM
[1]
  Solubility in chloroform and methanol: soluble
  Solubility in water: hardly soluble

## CNC12CN3C(C)CC(OC(C)=O)CC3CC1C(C)(C=O)C1(C2)C(=O)Nc2c(C(=O)C3OC3(C)C)cccc21 (stereo not drawn) [PF1270C]
Histamine H3 receptor
  IC50: 763 nM
[1]
  Solubility in chloroform and methanol: soluble
  Solubility in water: hardly soluble
